In test [1] the test system is female SD rat. In words: Anti-estrogenic activity of solution of EGCG in ethanol against 4-nonylphenol, rat uterine weight (Example 3). To be noted: NP 50 mg/kg oral alone. It counts as in vivo. The procedure:
A 16-days old female SD rat (Japan SLC) was purchased together with its mother, weaned at 19 days of age, and subjected to experiments from the next day.
4-Nonylphenol (hereinafter referred to as NP) was weighed such that it would be administered at 50 mg/kg and diluted by adding peanut oil thereto. The resulting mixture was orally administered for three successive days. The uterine removed on the day after the third administration day was weighed. EGCG was dissolved by adding ethanol and water was then added thereto to adjust the final ethanol concentration to 10%. The solution was orally administered 90 minutes before the administration of NP.

The test system of test [2] is female SD rat. In words: Anti-estrogenic activity of n-octyl gallate against NP, rat uterine weight (Example 10). It counts as in vivo. The conditions noted are these: NP 50 mg/kg oral + vehicle. How it is done:
(§1) A 16-days old female SD rat (Japan SLC) was purchased together with its mother, weaned at 19 days of age, and subjected to experiments from the next day. n-Octyl gallate (Tokyo Kasei Kogyo) was dissolved in a small volume of ethanol. Peanut oil was added thereto to result in a final ethanol concentration of 5%. The resulting mixture was orally administered to the 20-days old female SD rat for three successive days. The uterine removed on the day after the last administration day was weighed. Peanut oil containing 5% ethanol was used for a vehicle administration group. NP weighed such that it would be administered at 50 mg/kg was diluted by adding peanut oil. It was orally administered 1.5 hours after the administration of n-octyl gallate.

In test [3] the test system is female SD rat. Briefly: Anti-estrogenic activity of n-octyl gallate or n-cetyl gallate against subcutaneously administered BisA, rat uterine weight (Example 11). It is filed as in vivo. To be noted: for Ratio: vs control (100%). The procedure:
A 17-days old female SD rat (Japan SLC) was purchased together with its mother, weaned at 20 days of age, and subjected to experiments from the next day. n-Octyl gallate or n-cetyl gallate (both from Tokyo Kasei Kogyo) was dissolved in a small volume of ethanol. Peanut oil was added thereto to result in a final ethanol concentration of 5%. The resulting mixture was orally administered to the 21-days old female SD rat for three successive days. The uterine removed on the day after the last administration day was weighed. Peanut oil containing 5% ethanol was used for a vehicle administration group. BisA was dissolved in a small volume of ethanol. Peanut oil was added thereto to result in a final ethanol concentration of 5%. The mixture was subcutaneously administered.

Test [4] deals with T1, ER(α) (estrogen receptor α) (Homo sapiens, UniProt P03372).
T1 construct: purchased PanVera V2577
T1 sequence (P03372 1-595): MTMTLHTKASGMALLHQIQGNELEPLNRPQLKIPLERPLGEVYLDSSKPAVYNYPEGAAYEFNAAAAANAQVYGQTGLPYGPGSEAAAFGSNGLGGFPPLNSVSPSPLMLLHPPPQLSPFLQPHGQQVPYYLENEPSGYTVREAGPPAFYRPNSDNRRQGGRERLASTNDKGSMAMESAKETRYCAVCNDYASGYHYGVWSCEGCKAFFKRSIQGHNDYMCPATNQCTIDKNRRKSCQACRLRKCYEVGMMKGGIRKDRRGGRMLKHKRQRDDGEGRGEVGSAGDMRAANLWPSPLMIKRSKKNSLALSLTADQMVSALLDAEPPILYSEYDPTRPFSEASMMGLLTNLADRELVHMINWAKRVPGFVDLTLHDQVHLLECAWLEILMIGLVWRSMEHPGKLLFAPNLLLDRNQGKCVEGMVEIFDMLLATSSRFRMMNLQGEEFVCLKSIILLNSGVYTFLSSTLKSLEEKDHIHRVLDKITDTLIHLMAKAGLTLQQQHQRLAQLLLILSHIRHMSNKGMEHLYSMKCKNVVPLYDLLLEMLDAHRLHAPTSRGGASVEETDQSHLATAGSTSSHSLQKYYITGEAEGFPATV
In words: Binding to estrogen receptor, fluorescence polarization competition (FP Screen-for-Competitors kit, ER-α) (Example 7). The conditions noted are these: concentration inhibiting 50% of the binding of the ES1-ER(α) complex by competing with ES1; 1 hour at room temperature. The procedure:
Bindings of various gallic acid derivatives to estrogen receptor were tested using FP Screen-for-Competitors kit, ER-α, high sensitivity kit (V2577: PanVera). The tests were carried out basically according to the procedure as described in the manual attached to the kit. One of various gallic acid derivatives (n-octyl gallate (gallic acid n-octyl ester), n-dodecyl gallate (gallic acid n-dodecyl ester) and n-cetyl gallate (gallic acid n-hexadecyl ester)) was dissolved in DMSO and serially diluted to prepare diluted samples (0.5 M - 0.0000000005 M). 49 µL of Screening buffer attached to the kit was added to 1 µL of one of the diluted samples and stirred thoroughly. 50 µL of 10 nM-15 nM:ES1-ER(α) complex (a complex of ES1 (a fluorescent ligand that binds to ER) and ER(α) (estrogen receptor α)) attached to the kit was added thereto, resulting in the total volume of 100 µL. After allowing to stand for 1 hour at room temperature, fluorescence polarization was measured at an excitation wavelength of 360 nm and an emission wavelength of 535 nm using Full-Range BEACON 2000 (PanVera).
On the technique in general: Fluorescence polarisation rises when a labelled molecule tumbles more slowly, as on binding a larger partner.

The subject of test [5] is female SD rat. In words: Anti-estrogenic activity of n-octyl gallate against BisA, rat uterine weight (Example 9). It counts as in vivo. To be noted: BisA 40 mg/kg oral + vehicle. How it is done: as §1, with “BisA” for “NP weighed such that it would be administered at 50 mg/kg”, “dissolved in a small volume of ethanol. Peanut oil was added thereto to result in a final ethanol concentration of 5%.” for “diluted by adding peanut oil.”

The test system of test [6] is female SD rat. Briefly: Anti-estrogenic activity of solution of EGCG in ethanol against bisphenol-A, rat uterine weight (Example 2). It counts as in vivo. To be noted: for Uterine weight: mean ± standard error; for Ratio: vs control (100%). How it is done: A 17-days old female SD rat (purchased from Japan SLC) was received together with its mother, weaned at 20 days of age, and subjected to experiments from the next day. BisA was weighed such that it would be administered at 200 or 40 mg/kg and dissolved in a small volume of ethanol. Peanut oil was added thereto to result in a final ethanol concentration of 5%. The resulting mixture was orally administered for three successive days. The uterine removed on the next day was weighed. EGCG was dissolved by adding ethanol and water was then added thereto to adjust the final ethanol concentration to 10%. The solution was orally administered on the day before the administration of BisA and 30 minutes before each of the successive administrations of BisA.

Test [7] has as its system female SD rat. Briefly: Dose dependency of anti-estrogenic activity of solution of EGCG in ethanol, rat uterine weight (Example 6). It is filed as in vivo. The conditions noted are these: for Ratio: vs control (100%). The procedure:
(§2) A 16-days old female SD rat (Japan SLC) was purchased together with its mother, weaned at 19 days of age, and subjected to experiments from the next day. BisA was weighed such that it would be administered at 40 mg/kg and dissolved in a small volume of ethanol. Peanut oil was added thereto to result in a final ethanol concentration of 5%. The resulting mixture was subcutaneously or orally administered for three successive days. The uterine removed on the day after the third administration day was weighed. EGCG was dissolved by adding ethanol and water was then added thereto to adjust the final ethanol concentration to 10%. The solution was orally administered 30 minutes before the administration of BisA.

Test [8] relates to human breast cancer-derived MCF-7 cells. Briefly: E-SCREEN assay, proliferation of cultured cells, MTT method (Example 8). The conditions noted are these: BisA alone. It counts as cell-based. How it is done:
A test for proliferation of cultured cells was carried out according to a method called the E-SCREEN assay as described in Ana M. Soto et al. (Environ. Health Perspect. 103:113-122(1995)). Briefly, 4.0 x 10^3 of human breast cancer-derived MCF-7 cells in a volume of 100 µL were seeded into each well of a 96-well plate. The plate was incubated overnight. BisA or a combination of BisA and n-octyl gallate was then added thereto. A well without the addition was used as a control. The cells were further cultured for 4 days in a medium, Dulbecco's modified Eagle medium without Phenol Red supplemented with 5% FCS treated with activated carbon-dextran. The MTT method was used to measured the cell numbers.
A general note: Formazan colour is commonly taken as a measure of viable cells.

Test [9] deals with female SD rat. In words: Antagonistic (anti-estrogenic) activity of EGCG against bisphenol-A, immature rat uterine weight (Example 1(3)). It is filed as in vivo. The conditions noted are these: BisA 800 mg/kg oral alone. How it is done: (§3) A 17-days old female SD rat (purchased from Japan SLC) was received together with its mother, weaned at 20 days of age, and subjected to experiments from the next day. Five ml per kg body weight of EGCG (Sigma) or bisphenol-A (hereinafter referred to as BisA, Tokyo Kasei Kogyo) suspended in peanut oil (Nacalai Tesque) was administered orally and forcibly. Peanut oil was administered to a control rat in a similar manner. Administration was carried out once a day for three successive days. The uterine removed 24 hours after the last administration was weighed. BisA (800 mg/kg) and EGCG (800 mg/kg) were administered at the same time.

Test [10] relates to female SD rat. Briefly: Anti-estrogenic activity of solution of EGCG in ethanol, subcutaneous BisA, rat uterine weight (Example 5). It counts as in vivo. The conditions noted are these: BisA 40 mg/kg subcutaneous alone. How it is done: as §2, with “subcutaneously” for “subcutaneously or orally”, “EGCG (200 mg/kg)” for “EGCG”, “10 or 0%.” for “10%.”
For test [11], the system named is female SD rat. In words: Agonistic (estrogenic) activity: immature rat uterine weight (Example 1(2)). It is filed as in vivo. To be noted: substance alone. How it is done:
as §3, with “or EGCG (80 or 800” for “(800”, “was administered. […]” for “and EGCG (800 mg/kg) were administered at the same time.”

In test [12] the test system is female SD rat. In words: Effect of ethanol concentration on anti-estrogenic activity of EGCG, rat uterine weight (Example 4). It is filed as in vivo. The conditions noted are these: BisA 40 mg/kg subcutaneous alone. The procedure:
as §2, with “subcutaneously” for “subcutaneously or orally”, “EGCG (200 mg/kg)” for “EGCG”, “10, 5, 1, 0.5 or 0%.” for “10%.”, “90” for “30”

Turning to `CCCCCCCCCc1ccc(O)cc1` [NP, 4-Nonylphenol, reference compound], the results for the Uterine weight in test [1] (mean ± standard error) and in test [2] (mean ± standard error) were 44.4 ± 3.2 mg and 47.6 ± 2.3 mg, respectively. Besides, the Ratio in test [1] (vs control (100%)) and in test [2] (vs control (100%)) was 144% each time.

As usually defined, the IC50 is the concentration that inhibits the measured activity by half. Read a low IC50 as inhibition by little substance. Take `CCCCCCCCCCCCCCCCOC(=O)c1cc(O)c(O)c(O)c1` [n-cetyl gallate, gallic acid n-hexadecyl ester]: the Uterine weight in [3] (BisA 40 mg/kg subcutaneous + n-cetyl gallate 1 mg/kg oral, 3 days) came to 45.1 ± 2.3 mg; in test [3] (BisA 40 mg/kg subcutaneous + n-cetyl gallate 5 mg/kg oral, 3 days), 43.1 ± 2.0 mg. Besides, the values for the Ratio in test [3] (BisA 40 mg/kg subcutaneous + n-cetyl gallate 1 mg/kg oral) and in [3] (BisA 40 mg/kg subcutaneous + n-cetyl gallate 5 mg/kg oral) were 109% and 104%, respectively. Also, in test [4], the half-maximal inhibitory concentration (IC50) came out at 47.6 nM.

For `CCCCCCCCCCCCOC(=O)c1cc(O)c(O)c(O)c1` [n-Dodecyl gallate, gallic acid n-dodecyl ester], in test [4], the IC50 turned out to be 311 nM.

Regarding `CC(C)(c1ccc(O)cc1)c1ccc(O)cc1` [BisA, bisphenol-A, reference compound], the Uterine weight in test [5] (mean ± standard error) was found to be 48.9 ± 2.1 mg; in test [6] (BisA 40 mg/kg oral alone), 64.5 ± 9.2 mg; in [6] (BisA 200 mg/kg oral alone), 57.7 ± 5.2 mg; in test [7] (BisA 40 mg/kg subcutaneous alone, mean ± standard error), 52.2 ± 2.9 mg; in test [9] (mean ± standard error), 54.7 ± 5.5 mg; in test [3] (BisA 40 mg/kg subcutaneous + vehicle, mean ± standard error), 59.7 ± 2.7 mg. For the same molecule, the Uterine weight in test [10] (mean ± standard error) came out at 50.0 ± 2.7 mg; in test [11] (800 mg/kg oral in peanut oil, once a day for 3 days, mean ± standard error) it was 55.2 ± 2.3 mg; in [12] (mean ± standard error), 49.9 ± 2.1 mg. For the same molecule, the Ratio in test [5] (vs control (100%)) is 161%; in test [6] (BisA 40 mg/kg, oral, alone), 149%; in test [6] (BisA 200 mg/kg oral alone), 133%; in test [7] (BisA 40 mg/kg subcutaneous alone), 160%; in test [7] (BisA 40 mg/kg, oral, alone), 140%; in test [9] (vs control (100%)), 147%. Besides, the Ratio in test [3] (BisA 40 mg/kg subcutaneous + vehicle) came to 145%; in [10] (vs control (100%)), 162%; in test [11] (uterine weight vs control group (100%), 800 mg/kg oral, 3 days) it was 137%; in test [12] (vs control (100%)), 186%. The “number of the cells proliferated relative to the control” value in test [8] (MCF-7) turned out to be 1.8 fold. Also, the “Relative rate of increase in cell number” value in [8] (MCF-7, 4 days culture, control = 100) worked out at 180%.

The values above are taken from EP1232756A1, “DRUGS, DRINKS OR FOODS” (Takara Shuzo Co, Ltd., priority 1999, dated 2001).
